Data taken from paper PMC12177781, “Chalcogen Derivatives for the Treatment of African Trypanosomiasis: Biological Evaluation of Thio- and Seleno-Semicarbazones and Their Azole Derivatives” (ACS Omega, 2025).
Where “and” joins values, the source holds several entries; their conditions need not be identical. Identical values can stand only once.

Tests used:
hCatL = conditions: E-64, from ref. (number not given); cited from earlier work
TbrCATL = conditions: cited from earlier work
[1] = molecular target: T. brucei cathepsin L-like protease (TbrCATL) (Trypanosoma brucei rhodesiense, UniProt Q95PM0); assay: TbrCATL inhibition assay, Z-FR-AMC substrate; type: biochemical; conditions: for SI TbrCATL: IC50 hCatL/IC50 TbrCATL
Protocol: (§1) All experiments were performed in a 384-well black microplate, using a Synergy HTX (Biotek) plate reader at 25 °C with absorption/emission wavelengths of 360/460 nm. Assays were performed in triplicate wells and DMSO was used as a vehicle control. Enzyme activity was measured and normalized to DMSO controls, and the inhibitor E-64 (10 μM) was used as a positive control for all assays. Experiments were performed in triplicate, with at least two independent assays (n = 6 data points). IC50 values were determined through nonlinear regression. The data obtained were analyzed using GraphPad Prism 9.0 (GraphPad Software, La Jolla, California, US).
The screening assay was performed using 0.5 nM of TbrCATL diluted in 0.1 M sodium acetate, 1 mM dithiothreitol (DTT), and 0.01% Triton X-100, pH 5.5. TbrCATL was expressed and purified as described. Enzyme the compound (10 μM), were incubated for 10 min at room temperature. Then the substrate, Z-Phe-Arg-amidomethylcoumarin (Z-FR-AMC; Sigma-Aldrich, C9521), was added (30 μL diluted in the same assay buffer) to yield a final concentration of 2.5 μM and the assay allowed to proceed for 10 min. […] For those compounds inhibiting enzyme activity by >85%, DR assays were performed over 15 2-fold serial dilutions starting at 0.5 or 20 μM.

cruzain (Cz) = conditions: cited from earlier work
HEK293 cells [2] = conditions: human
C2C12 cells = conditions: read-out: Toxicity CC50 C2C12 cells; cited from earlier work
[3] = tested on: T. brucei brucei Lister 427; assay: T. b. brucei Lister 427 bloodstream-form growth inhibition, SYBR Green viability assay, 72 h; type: cell-based, Trypanosoma brucei brucei; conditions: for T. brucei inhibition (%): growth inhibition at 10 µM, ± SD
[4] = DPPH radical scavenging (antioxidant) assay; conditions: after 2 h, mean ± SEM
HepG2 cells [5] = assay: HepG2 cytotoxicity, CellTiter-Glo, 48 h; conditions: Homo sapiens, HepG2, read-out: HepG2 inhibition (%)
HepG2 cells [6] = conditions: human
in vitro [7] = conditions: human, CC50 HepG2 (μM)
T. cruzi CAI/72 = conditions: cited from earlier work
[8] = molecular target: T1, human cathepsin L (hCatL) (Homo sapiens, UniProt P07711); assay: hCatL inhibition assay, Z-FR-AMC substrate; type: biochemical; conditions: mean ± SD, two experiments in triplicate (n = 6)
T1 construct: purchased R&D Systems 952-CY
Protocol: as §1
Recombinant hCatL was purchased from R&D Systems (952-CY) and activated according to the manufacturers protocol. This enzyme, hCatL, is used to test compounds’ selectivity because it is the human homologue of TbrCATL. The assay was modified from, using 25 pM of the enzyme diluted in 40 mM sodium acetate, 5 mM DTT, 100 mM NaCl, 1 mM EDTA and 0.01% Triton X-100, pH 5.5. Enzyme and compound (10 μM), were incubated for 30 min at room temperature. Then Z-FR-AMC was added (30 μL diluted in the same assay buffer) to yield a final concentration of 25 μM and the assay allowed to proceed for 10 min. DR assays were performed over 15 2-fold serial dilutions starting at 0.5 or 20 μM.

in vitro [9] = conditions: human, CC50 HEK293 (μM)
HEK293 cells [10] = assay: HEK293 cytotoxicity, CellTiter-Glo, 48 h; conditions: Homo sapiens, HEK293, read-out: HEK293 inhibition (%)

Chain of T. brucei cathepsin L-like protease (TbrCATL) (Q95PM0 1-450): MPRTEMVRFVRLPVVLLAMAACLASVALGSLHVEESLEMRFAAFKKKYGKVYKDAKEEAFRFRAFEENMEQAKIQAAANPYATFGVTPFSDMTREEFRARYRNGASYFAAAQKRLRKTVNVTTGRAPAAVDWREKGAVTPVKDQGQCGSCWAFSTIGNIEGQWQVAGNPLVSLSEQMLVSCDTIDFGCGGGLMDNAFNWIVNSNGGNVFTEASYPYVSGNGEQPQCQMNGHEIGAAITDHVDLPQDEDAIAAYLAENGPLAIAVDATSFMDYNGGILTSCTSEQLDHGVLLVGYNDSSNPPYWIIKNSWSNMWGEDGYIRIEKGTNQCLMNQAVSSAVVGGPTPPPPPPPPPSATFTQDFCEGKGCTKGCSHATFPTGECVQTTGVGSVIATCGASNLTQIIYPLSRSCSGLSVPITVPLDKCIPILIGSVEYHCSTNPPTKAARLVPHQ
T1 sequence (P07711 114-333): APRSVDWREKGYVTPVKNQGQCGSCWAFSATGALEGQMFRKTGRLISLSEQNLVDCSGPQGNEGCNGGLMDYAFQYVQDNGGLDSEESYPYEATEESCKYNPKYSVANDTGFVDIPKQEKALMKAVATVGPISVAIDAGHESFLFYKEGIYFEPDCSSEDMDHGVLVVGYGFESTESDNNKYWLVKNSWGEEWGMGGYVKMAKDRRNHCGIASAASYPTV

CC(C)C[C@H](NC(=O)[C@H]1O[C@@H]1C(=O)O)C(=O)NCCCCN=C(N)N [Compound E-64, E-64]
IC50 (hCatL): 30 ± 4 nM | IC50 (TbrCATL): 3.1 nM | SI TbrCATL [1]: 10

C/C(=N\NC(N)=[Se])c1ccc(Br)cc1 [SeO3]
IC50 (cruzain (Cz)): 14.3 ± 3.57 nM | CC50 (HEK293 cells [2]): 2820 ± 110 nM | CC50 (C2C12 cells): > 10000 nM | EC50 ([3]; Trypanosoma brucei, three independent experiments in duplicate (n = 6) ± SD, read-out: EC50 T. brucei): 470 ± 20 nM | T. brucei inhibition (%) ([3]; 10 µM): 100 ± 2% | T. brucei inhibition (%) ([3]; listed as Se O3, 10 µM): > 70% | % inhibited DPPH ([4]; 0.015 mg/ml): 23.00 ± 13.43% | % inhibited DPPH ([4]; 0.03 mg/ml): 75.00 ± 2.65% | % inhibited DPPH ([4]; 0.06 mg/ml): 77.67 ± 1.45% | inhibition at 10 µM (HepG2 cells [5]): 71 ± 15% | CC50 (HepG2 cells [6]): 2700 ± 160 nM | IC50 ([1]; IC50 TbrCATL (nM), mean ± SD, two experiments in triplicate (n = 6)): 9.87 nM and 1.22 nM | SI TbrCATL [1]: 8 | TbrCATL inhibition (%) ([1]; at 10 μM): 99.15% | inhibition at 10 µM ([1]; read-out: TbrCATL inhibition (%), at 10 μM): > 85% | CC50 (in vitro [7]): 2.82 µM | EC50 (T. cruzi CAI/72): 770 ± 170 nM | IC50 [8]: 9.87 ± 0.63 nM | CC50 (in vitro [9]): 2.7 µM | inhibition at 10 µM (HEK293 cells [10]): 100%
